By melting point is commonly meant the temperature of the solid-liquid transition.

One data set deals with Male BALB-C mice. Put plainly: IP administration of compounds in fasted male BALB-C mice, 2 hr food intake. As to conditions: Mus musculus; male BALB-C mice fasted 18-20 hr; 30 mg/kg (ip) in 2% tween; food given after 30 min, weighed 2 hr later; vs vehicle; read-out: inhibition of feeding (2 hr food intake). In kind it is in vivo. From the text:
Protocol For IP Administration Of Compounds In Male BALB-C Mice.
Male BALB-C mice (20-25 g)were obtained from Charles Rivers (Wilmington, Mass.) and were given at least a one week acclimation period to Amgen's animal care facilities. Animals were housed 10/cage and were provided ad libitum food and water. For testing, mice were fasted for 18-20 hr (overnight) prior to the start of the experiment. On the day of the experiment, mice were removed from group housing and placed into individual cages (without food). Test compounds or vehicle was then administered via the intraperitoneal (i.p.) route of administration. Test compounds were suspended in a 2% tween solution; the 2% tween solution was used as the vehicle treatment (control group). Group sizes for each treatment were 6-8 animals. After 30 min, premeasured food was placed into the cages. Two hours later, the food was weighed again. The difference between 2 hr weight and the premeasured weight was taken as 2 hr food intake.

In the next data set the test system is Long-Evans male rats. Put plainly: IP administration of compounds in fasted Long-Evans male rats, 2 hr food intake. It counts as in vivo. As to conditions: Rattus norvegicus; male Long Evans rats fasted 18-20 hr; 30 mg/kg (ip) in 2% tween; food given after 30 min, weighed 2 hr later; vs vehicle; read-out: inhibition of feeding (2 hr food intake). The procedure: Protocol for IP Administration of Compounds in Fasted Long-Evans Male Rats
Male Long Evans rats (85-100 g)were obtained from Harlan (Indianapolis, Ind.) and were given at least a one week acclimation period to Ambients animal care facilities. Animals were individually housed and were provided ad libitum food and water. For testing, rats were fasted for 18-20 hr (overnight) prior to the start of the experiment. On the test day, test compounds or vehicle was administered via the intraperitoneal (i.p.) route of administration. Test compounds were suspended in a 2% tween solution; the 2% tween solution was used as the vehicle treatment (control group). Group sizes for each treatment were 6-8 animals. After 30 min, premeasured food was placed into the cages. Two hours later, the food was weighed again. The difference between 2 hr weight and the premeasured weight was taken as 2 hr food intake.

Where a name gives a salt, the structure may show the parent alone.

In the case of `Cc1nc(N2CCCCC2)c2[nH]c(-c3ccc(C(F)(F)F)cc3)cc2n1` [Example 111, 2-Methyl-4-piperidyl-6-[4-(trifluoromethyl)phenyl]pyrrolo[3,2-d]pyrimidine Hydrochloride Hydrate], the inhibition in vivo at 30 mg/kg in the data set with Male BALB-C mice and in the data set on Long-Evans male rats was ≥ 10% each time. For `Cc1nc(N2CCCCC2)c2[nH]c(-c3cc(F)c(F)c(F)c3)cc2n1` [Example 116, 2-Methyl-4-piperidyl-6-(3,4,5-trifluorophenyl)pyrrolo[3,2-d]pyrimidine Hydrochloride Hydrate], the inhibition in vivo at 30 mg/kg with Male BALB-C mice and with Long-Evans male rats was ≥ 10% throughout. In the case of `Cc1nc(N2CCCCC2)c2[nH]c(C3CCCCC3)cc2n1` [Example 80d, 6-Cyclohexyl-2-methyl-4-piperidylpyrrolo[3,2-d]pyrimidine Hydrochloride Hydrate], the inhibition in vivo at 30 mg/kg with Male BALB-C mice and with Long-Evans male rats was ≥ 10% in each case. As for `Cc1nc(N2CCCC2)c2[nH]c(-c3ccccc3)cc2n1` [Example 9, 2-Methyl-6-phenyl-4-pyrrolidinylpyrrolo[3,2-d]pyrimidine], in the data set on Male BALB-C mice, the inhibition in vivo at 30 mg/kg was ≥ 10%. As to `Cc1nc(N2CCCCC2)c2[nH]c(C(C)(C)C)cc2n1` [Example 97, 6-(tert-Butyl)-2-methyl-4-piperidylpyrrolo[3,2-d]pyrimidine Hydrochloride Hydrate], the inhibition in vivo at 30 mg/kg in the data set on Male BALB-C mice and with Long-Evans male rats was ≥ 10% throughout. As for `Cc1nc(N2CC=CC2)c2[nH]c(-c3cccc(C(F)(F)F)c3)cc2n1` [Example 197d, 2-Methyl-4-(3-pyrrolinyl)-6-[3-(trifluoromethyl)phenyl]pyrrolo[3,2-d]pyrimidine Hydrochloride Monohydrate], the inhibition in vivo at 30 mg/kg in the data set with Male BALB-C mice and in the data set with Long-Evans male rats was ≥ 10% in each case. Consider `CC1=C(c2cc3nc(C)nc(N4CCCCC4)c3[nH]2)CCC1.Cl` [Example 98, 2-Methyl-6-(2-methylcyclopent-1-enyl)-4-piperidylpyrrolo[3,2-d]pyrimidine Hydrochloride], for which the melting point is 224.5 to 226 °C. The inhibition in vivo at 30 mg/kg in the data set on Male BALB-C mice is ≥ 10%. Regarding `CCCc1nc(N2CCCCC2)c2[nH]c(-c3ccccc3)cc2n1` [Example 196c, 6-Phenyl-4-piperidyl-2-propylpyrrolo[3,2-d]pyrimidine Hydrochloride Monohydrate], the inhibition in vivo at 30 mg/kg in the data set with Male BALB-C mice and in the data set on Long-Evans male rats was ≥ 10% each time. As to `Cc1nc(N2CCCCC2)c2[nH]c(-c3ccc(Cl)c(Cl)c3)cc2n1` [Example 118, 6-(3,4-Dichlorophenyl)-2-methyl-4-piperidylpyrrolo[3,2-d]pyrimidine Hydrochloride Monohydrate], the inhibition in vivo at 30 mg/kg in the data set on Male BALB-C mice and in the data set with Long-Evans male rats was ≥ 10% throughout. For `Cc1nc(N2CCCCC2)c2[nH]c(-c3cc(C)oc3C)cc2n1` [Example 108, 2,5-Dimethyl-3-(2-methyl-4-piperidylpyrrolo[4,5-d]pyrimidin-6-yl)furan Hydrochloride Monohydrate], the inhibition in vivo at 30 mg/kg in the data set on Male BALB-C mice and in the data set on Long-Evans male rats was ≥ 10% each time. Turning to `Cc1nc(N2CCCCC2)c2[nH]c(-c3cccc(F)c3)cc2n1` [Example 103, 6-(3-Fluorophenyl)-2-methyl-4-piperidylpyrrolo[3,2-d]pyrimidine Hydrochloride Monohydrate], the inhibition in vivo at 30 mg/kg with Male BALB-C mice was ≥ 10%. Consider `Cc1nc(N2CCCCC2)c2sc(-c3ccc(F)cc3)cc2n1` [Example 217, 6-(4-Fluorophenyl)-2-methyl-4-piperidylthiopheno[3,2-d]pyrimidine Hydrochloride Hydrate], for which the inhibition in vivo at 30 mg/kg in the data set with Male BALB-C mice and in the data set on Long-Evans male rats was ≥ 10% each time. For the compound `Cc1nc(N2CCCCC2)c2[nH]c(-c3ccc4c(c3)CCO4)cc2n1` [Example 131, 5-[2-Methyl-4-piperidylpyrrolo[4,5-d]pyrimidin-6-yl]-2,3-dihydrobenzo[b]furan Hydrochloride Hydrate], the inhibition in vivo at 30 mg/kg with Male BALB-C mice is ≥ 10%.

In the case of `Cc1nc(N2CCCCC2)c2[nH]c(-c3ccccn3)cc2n1` [Example 77, 2-Methyl-4-piperidyl-6-(2-pyridyl)pyrrolo[3,2-d]pyrimidine Hydrochloride Hydrate], the inhibition in vivo at 30 mg/kg with Male BALB-C mice is ≥ 10%. In the case of `Nc1nc(N2CCCCC2)c2[nH]c(-c3ccccc3)cc2n1` [Example 66e, 6-Phenyl-4-piperidylpyrrolo[3,2-d]pyrimidine-2-yl Amine Hydrochloride Hydrate], the inhibition in vivo at 30 mg/kg in the data set with Male BALB-C mice and in the data set with Long-Evans male rats was ≥ 10% throughout. On to `Cc1nc(N2CCCCC2)c2[nH]c(-c3ccc(SC(F)(F)F)cc3)cc2n1` [Example 123, Trifluoro[4-(2-methyl-4-piperidylpyrrolo[4,5-d]pyrimidin-6-yl)phenylthio]methane Hydrochloride Monohydrate], for which the inhibition in vivo at 30 mg/kg in the data set with Male BALB-C mice and in the data set with Long-Evans male rats was ≥ 10% throughout. For `Cc1nc(NC[C@H]2CC[C@H](CNS(=O)(=O)c3cccc4ccccc34)CC2)c2[nH]c(-c3ccccc3)cc2n1` [Example 194, trans-[(4-{[(2-Methyl-6-phenylpyrrolo[2,3-e]pyrimidin-4-yl)amino]methyl}cyclohexyl)methyl](naphthylsulfonyl)amine Hydrochloride Hydrate], the inhibition in vivo at 30 mg/kg with Male BALB-C mice and with Long-Evans male rats was ≥ 10% throughout. In the case of `Cc1nc(N2CCc3ccccc32)c2[nH]c(-c3ccccc3)cc2n1` [Example 215, 4-Indolinyl-2-methyl-6-phenylpyrrolo[3,2-d]pyrimidine Hydrochloride Hydrate], the inhibition in vivo at 30 mg/kg in the data set on Male BALB-C mice is ≥ 10%. As to `CCC1CCCCN1c1nc(C)nc2cc(-c3ccccc3)[nH]c12` (stereo not shown) [Example 64, 2-Methyl-6-phenyl-4-(2-ethylpiperidinyl)pyrrolo[3,2-d]pyrimidine Hydrochloride Hydrate], the inhibition in vivo at 30 mg/kg with Male BALB-C mice is ≥ 10%. Same read-out and setting: then `Cc1nc(-n2cccn2)c2[nH]c(-c3ccccc3)cc2n1` [Example 218, 2-Methyl-6-phenyl-4-pyrazolypyrrolo[3,2-d]pyrimidine Hydrochloride Hydrate], with ≥ 10%.

As for `Cc1nc(N2CCCCC2)c2[nH]c(-c3ccc(Cl)cc3)cc2n1.Cl` [Example 92d, 6-(4-Chlorophenyl)-2-methyl-4-piperidylpyrrolo[3,2-d]pyrimidine Hydrochloride], the melting point is 253.8 to 255.2 °C (dec.). In the data set with Male BALB-C mice, the inhibition in vivo at 30 mg/kg is ≥ 10%.

`CCOC(=O)c1[nH]c(-c2ccc(F)cc2)cc1N` [Example 73a, ethyl 3-amino-5-(4-fluorophenyl)pyrrole-2-carboxylate]: the inhibition in vivo at 30 mg/kg in the data set with Male BALB-C mice is ≥ 10%. With `Cc1nc(N2CCCCC2)c2[nH]c(-c3ccc4c(c3)OCO4)cc2n1` [Example 114, 5-[2-Methyl-4-piperidylpyrrolo[4,5-d]pyrimidin-6-yl]-2H-benzo[d]1,3-dioxolane Hydrochloride Monohydrate], the inhibition in vivo at 30 mg/kg in the data set on Male BALB-C mice is ≥ 10%. Same read-out and setting: then `Cc1nc(N2CCCCC2)c2[nH]c(-c3ccc4c(c3)OCCO4)cc2n1` [Example 125, 6-(2-Methyl-4-piperidylpyrrolo[4,5-d]pyrimidin-6-yl)-2H,3H-benzo[e]1,4-dioxane Hydrochloride Monohydrate], with ≥ 10%; and `Cc1nc(N2CCCCC2)c2[nH]c(-c3ccc4c(c3)CCC4)cc2n1` [Example 130, 6-Indan-5-yl-2-methyl-4-piperidylpyrrolo[3,2-d]pyrimidine Hydrochloride Monohydrate], with ≥ 10%. Same read-out and setting: then `Cc1nc(N2CC=CC2)c2[nH]c(-c3ccc(F)cc3)cc2n1` [Example 199, 6-(4-Fluorophenyl)-2-methyl-4-(3-pyrrolinyl)pyrrolo[3,2-d]pyrimidine Hydrochloride Hydrate], with ≥ 10%.

For the compound `Cc1nc(N2CCCCC2)c2[nH]c(-c3cccc(C(F)(F)F)c3)cc2n1` [Example 107, 2-Methyl-4-piperidyl-6-[3-(trifluoromethyl)phenyl]pyrrolo[3,2-d]pyrimidine Hydrochloride Monohydrate], the inhibition in vivo at 30 mg/kg in the data set with Male BALB-C mice was ≥ 10%. As for `CCCNc1nc(N2CCCCC2)c2[nH]c(-c3ccccc3)cc2n1` [Example 93, (6-Phenyl-4-piperidylpyrrolo[3,2-d]pyrimidine-2-yl)propylamine Hydrochloride], the inhibition in vivo at 30 mg/kg in the data set with Male BALB-C mice was ≥ 10%.

As to `Cc1nc(N2CCCCC2)c2[nH]c(C34C[C@H]5C[C@@H](C3)C[C@@H](C4)C5)cc2n1` [Example 81d, 6-Adamantanyl-2-methyl-4-piperidylpyrrolo[3,2-d]pyrimidine Hydrochloride Monohydrate], in the data set on Male BALB-C mice, the inhibition in vivo at 30 mg/kg is ≥ 10%.
